Measured values as given in patent US10961163B2, “Compositions and methods useful for enhancing the microbial conversion of nitrate into ammonium” (The Regents of the University of California, priority 2016, dated 2021).
Peptide text beside a SMILES is read from it.

Each compound was assayed on microbial enrichment cultures (assay: Ammonium production normalized by growth (NH4+/OD ratio) of microbial enrichment cultivated on individual carbon sources). Settings: not given.
Assay type: cell-based

First: N=C(N)NCCC[C@H](N)C(=O)O [L-Arginine]
Second: NCCCC[C@H](N)C(=O)O [L-Lysine]
The Ammonium/OD ratio of the first is higher: 1.79 for the first, 1.02 for the second.

Compared with `O.O=C([O-])C[C@H](O)C(=O)[O-].[Na+].[Na+]` [L-Malic acid disodium salt monohydrate], `O.O=C([O-])C(=O)[O-].[K+].[K+]` [Potassium oxalate monohydrate] is lower in Ammonium/OD ratio: 1.43 for the first, 1.13 for the second.

Going from `N[C@@H](Cc1c[nH]c2ccccc12)C(=O)O` [L-Tryptophan] to `O.O.O=C([O-])CC(O)(CC(=O)[O-])C(=O)[O-].[Na+].[Na+].[Na+]` [Trisodium citrate dihydrate], the Ammonium/OD ratio rises from 1.23 to 1.73.

Compared with `CC(=O)[O-].[K+]` [Potassium acetate], `Cl.Cl.NCCCCN` [Putrescine Dihydrochloride] is higher in Ammonium/OD ratio: 0.98 for the first, 1.20 for the second.

Same assay, conditions: average of 8 independent cultures amended with varying concentrations of the carbon source; ammonium by colorimetric (Bertholet) assay, growth by OD 600

Going from `O=C(O)CC(O)C(=O)O` (racemic) [D,L-Malic Acid] to `N[C@@H](CC(=O)O)C(=O)O` [L-Aspartic Acid], the Ammonium/OD ratio falls from 1.41 to 1.24.

Going from `NCC(=O)NC(CC(=O)O)C(=O)O` (racemic) [Gly-DL-Asp] to `NCC(=O)N[C@@H](CCC(=O)O)C(=O)O` [Gly-Glu] (H-Gly-Glu-OH), the Ammonium/OD ratio falls from 1.17 to 1.12.

Going from `CC(O)C(=O)[O-].[Na+]` (racemic) [Sodium D,L-Lactate] to `C[C@@H](O)C(=O)[O-].[Na+]` [Sodium D-Lactate], the Ammonium/OD ratio rises from 0.91 to 1.16.

First: O=CC[C@H](O)[C@H](O)CO [2-Deoxy-D-Ribose]
Second: O=C[C@@H](O)[C@H](O)[C@H](O)CO [D-Arabinose]
The Ammonium/OD ratio of the first is lower: 1.00 for the first, 1.21 for the second.

First: O=C(O)c1ccc(O)cc1 [4-Hydroxybenzoic Acid]
Second: N[C@@H](Cc1ccccc1)C(=O)O [L-Phenylalanine]
The Ammonium/OD ratio of the first is lower: 1.31 for the first, 1.40 for the second.

Compared with `O=C(CO)[C@@H](O)[C@H](O)[C@@H](O)C(=O)[O-].[K+]` [5-Keto-D-Gluconic Acid potassium salt], `O=C(CO)[C@@H](O)[C@H](O)[C@H](O)CO` [D-Fructose] is higher in Ammonium/OD ratio: 1.12 for the first, 1.42 for the second.

Compared with `Cl.Nc1ncnc2nc[nH]c12.O` [Adenine hydrochloride hydrate], `Nc1ncnc2c1ncn2[C@@H]1O[C@H](CO)[C@@H](O)[C@H]1O` [Adenosine] is higher in Ammonium/OD ratio: 0.93 for the first, 1.25 for the second.

Going from `OC[C@H]1O[C@@H](O[C@H]2[C@H](O)[C@@H](O)[C@H](O)O[C@@H]2CO)[C@H](O)[C@@H](O)[C@H]1O` [Beta-Lactose] to `OC[C@H]1O[C@@H](O[C@H]2[C@H](O)[C@@H](O)[C@H](O)O[C@@H]2CO)[C@H](O)[C@@H](O)[C@@H]1O` [D-Cellobiose], the Ammonium/OD ratio rises from 0.99 to 1.14.

Going from `C[N+](C)(C)CC(O)CC(=O)[O-].Cl` (centres unmarked) [Carnitine Hydrochloride] to `C[C@H](O)C(=O)[O-].[Na+]` [Sodium L-Lactate], the Ammonium/OD ratio falls from 1.45 to 1.35.

Compared with `O=C(O)CC(O)(CC(=O)O)C(=O)O` [Citric Acid], `C=C(CC(=O)O)C(=O)O` [Itaconic Acid] is lower in Ammonium/OD ratio: 1.65 for the first, 1.40 for the second.

Going from `Nc1ccn([C@@H]2O[C@H](CO)[C@@H](O)[C@H]2O)c(=O)n1` [Cytidine] to `O=c1ccn([C@@H]2O[C@H](CO)[C@@H](O)[C@H]2O)c(=O)[nH]1` [Uridine], the Ammonium/OD ratio falls from 1.64 to 0.96.

Going from `Nc1cc[nH]c(=O)n1` [Cytosine] to `Cc1c[nH]c(=O)[nH]c1=O` [Thymine], the Ammonium/OD ratio falls from 1.37 to 1.13.

First: C[C@@H](N)C(=O)O [D-Alanine]
Second: C[C@H](N)C(=O)O [L-Alanine]
The Ammonium/OD ratio of the first is lower: 1.08 for the first, 1.45 for the second.

Going from `O=C[C@H](O)[C@@H](O)[C@@H](O)[C@H](O)CO` [D-Galactose] to `O=C[C@H](O)[C@@H](O)[C@H](O)[C@H](O)CO` [D-Glucose], the Ammonium/OD ratio rises from 0.93 to 1.33.

Compared with `O.O=C[C@H](O)[C@@H](O)[C@@H](O)[C@H](O)C(=O)O` [D-Galacturonic Acid monohydrate], `O=C[C@H](O)[C@@H](O)[C@H](O)[C@H](O)C(=O)O` [D-Glucuronic Acid] is higher in Ammonium/OD ratio: 0.92 for the first, 1.02 for the second.

First: O=C([O-])[C@H](O)[C@@H](O)[C@H](O)[C@H](O)CO.[Na+] [D-Gluconic Acid sodium salt]
Second: OC[C@@H](O)[C@@H](O)[C@H](O)[C@H](O)CO [D-Mannitol]
The Ammonium/OD ratio of the first is higher: 1.19 for the first, 0.90 for the second.

Compared with `Cl.N[C@H]1C(O)O[C@H](CO)[C@@H](O)[C@@H]1O` (stereo partly drawn) [D-Glucosamine Hydrochloride], `CC(=O)N[C@H]1C(O)O[C@H](CO)[C@@H](O)[C@@H]1O` (stereo partly drawn) [N-Acetyl-D-Glucosamine] is lower in Ammonium/OD ratio: 1.16 for the first, 1.07 for the second.

Going from `O=C[C@H](O)[C@@H](O)[C@H](O)[C@H](O)COP(=O)([O-])[O-].[Na+].[Na+]` [D-Glucose-6-Phosphate sodium salt] to `O=C[C@@H](O)[C@@H](O)[C@H](O)[C@H](O)CO` [D-Mannose], the Ammonium/OD ratio falls from 0.99 to 0.96.

Going from `OC[C@H]1O[C@H](O[C@H]2[C@H](O)[C@@H](O)[C@H](O)O[C@@H]2CO)[C@H](O)[C@@H](O)[C@@H]1O` [D-Maltose monohydrate] to `O.O.OC[C@H]1O[C@H](O[C@H]2O[C@H](CO)[C@@H](O)[C@H](O)[C@H]2O)[C@H](O)[C@@H](O)[C@@H]1O` [D-Trehalose dihydrate], the Ammonium/OD ratio falls from 0.94 to 0.82.

Going from `O.O.O.O.O.OC[C@H]1O[C@H](OC[C@H]2O[C@H](O[C@]3(CO)O[C@H](CO)[C@@H](O)[C@@H]3O)[C@H](O)[C@@H](O)[C@@H]2O)[C@H](O)[C@@H](O)[C@H]1O` [D-Raffinose pentahydrate] to `OC[C@H]1O[C@@](CO)(O[C@H]2O[C@H](CO)[C@@H](O)[C@H](O)[C@H]2O)[C@@H](O)[C@@H]1O` [Sucrose], the Ammonium/OD ratio rises from 1.03 to 1.07.

Compared with `O=C[C@H](O)[C@H](O)[C@H](O)CO` [D-Ribose], `O=C[C@H](O)[C@@H](O)[C@H](O)CO` [D-Xylose] is lower in Ammonium/OD ratio: 1.36 for the first, 1.06 for the second.

First: N[C@H](CO)C(=O)O [D-Serine]
Second: N[C@@H](CO)C(=O)O [L-Serine]
The Ammonium/OD ratio of the first is higher: 1.81 for the first, 1.20 for the second.

Going from `OC[C@@H](O)[C@@H](O)[C@H](O)[C@@H](O)CO` [D-Sorbitol] to `OC[C@@H](O)[C@H](O)[C@@H](O)CO` [Xylitol], the Ammonium/OD ratio rises from 0.82 to 1.13.

Going from `O=C(CO)[C@@H](O)[C@@H](O)[C@H](O)CO` [D-Tagatose] to `O=C(CO)[C@@H](O)[C@H](O)[C@@H](O)CO` [L-Sorbose], the Ammonium/OD ratio rises from 1.14 to 1.90.

Compared with `CCO` [Ethanol], `CCC(=O)[O-].[Na+]` [Sodium propionate] is higher in Ammonium/OD ratio: 0.91 for the first, 0.94 for the second.

Compared with `NC(=O)[C@@H](O)[C@@H](O)[C@H](O)[C@@H](O)C=O` [Glucuronamide], `C[C@H](O)[C@@H](O)[C@@H](O)[C@H](O)C=O` [L-Fucose] is lower in Ammonium/OD ratio: 1.38 for the first, 1.06 for the second.

First: OCC(O)CO [Glycerol]
Second: O=C[C@H](O)[C@@H](O)[C@@H](O)CO [L-Arabinose]
The Ammonium/OD ratio of the first is lower: 1.19 for the first, 1.70 for the second.

First: NCC(=O)O [Glycine]
Second: O=C(O)CO [Glycolic Acid]
The Ammonium/OD ratio of the first is lower: 0.94 for the first, 1.01 for the second.

Compared with `OC[C@H]1O[C@@H](n2cnc3c(O)ncnc32)[C@H](O)[C@@H]1O` [Inosine], `Cc1cn([C@H]2C[C@H](O)[C@@H](CO)O2)c(=O)[nH]c1=O` [Thymidine] is lower in Ammonium/OD ratio: 1.44 for the first, 1.06 for the second.

Going from `NC(=O)C[C@H](N)C(=O)O` [L-Asparagine] to `NC(=O)CC[C@H](N)C(=O)O` [L-Glutamine], the Ammonium/OD ratio rises from 1.16 to 1.28.

Going from `NC(=O)NCCC[C@H](N)C(=O)O` [L-Citrulline] to `CSCC[C@H](N)C(=O)O` [L-Methionine], the Ammonium/OD ratio rises from 1.46 to 1.67.

Going from `Cl.N[C@@H](CS)C(=O)O.O` [L-Cysteine hydrochloride monohydrate] to `CC(C)C[C@H](N)C(=O)O` [L-Leucine], the Ammonium/OD ratio rises from 1.00 to 1.07.

First: N[C@@H](CCC(=O)O)C(=O)[O-].O.[K+] [L-Glutamic acid monopotassium salt monohydrate]
Second: O.O=C([O-])CCC(=O)C(=O)[O-].[Na+].[Na+] [a-Ketoglutaric acid disodium salt hydrate]
The Ammonium/OD ratio of the first is lower: 0.98 for the first, 1.26 for the second.

Compared with `N[C@@H](Cc1c[nH]cn1)C(=O)O` [L-Histidine], `C[C@@H](O)[C@H](N)C(=O)O` [L-Threonine] is higher in Ammonium/OD ratio: 1.10 for the first, 1.35 for the second.

Going from `CC[C@H](C)[C@H](N)C(=O)O` [L-Isoleucine] to `CC(C)[C@H](N)C(=O)O` [L-Valine], the Ammonium/OD ratio falls from 1.13 to 0.94.

Compared with `O=C(O)[C@@H]1CCCN1` [L-Proline], `CC(=O)C(=O)[O-].[Na+]` [Sodium pyruvate] is higher in Ammonium/OD ratio: 0.94 for the first, 0.96 for the second.

First: C[C@H](O)[C@H](O)[C@@H](O)[C@@H](O)C=O.O [L-Rhamnose monohydrate]
Second: O=C[O-].[Na+] [Sodium Formate]
The Ammonium/OD ratio of the first is higher: 1.09 for the first, 0.72 for the second.

Compared with `O=C1NC(=O)C(=O)N1` [Parabanic Acid], `O=C([O-])/C=C/C(=O)[O-].[Na+].[Na+]` [Sodium Fumarate dibasic] is lower in Ammonium/OD ratio: 1.12 for the first, 0.81 for the second.

Going from `CCCC(=O)[O-].[Na+]` [Sodium butyrate] to `CCCCCCCC(=O)[O-].[Na+]` [Sodium octanoate], the Ammonium/OD ratio rises from 1.04 to 1.21.

Compared with `O.O.O.O.O.O.O=C([O-])CCC(=O)[O-].[Na+].[Na+]` [Sodium succinate dibasic hexahydrate], `O[C@H]1[C@H](O)[C@@H](O)[C@H](O)[C@@H](O)[C@H]1O` [m-Inositol] is higher in Ammonium/OD ratio: 1.03 for the first, 1.25 for the second.

`OC[C@H]1O[C@@H]2O[C@H]3[C@H](O)[C@@H](O)[C@@H](O[C@H]4[C@H](O)[C@@H](O)[C@@H](O[C@H]5[C@H](O)[C@@H](O)[C@@H](O[C@H]6[C@H](O)[C@@H](O)[C@@H](O[C@H]7[C@H](O)[C@@H](O)[C@@H](O[C@H]1[C@H](O)[C@H]2O)O[C@@H]7CO)O[C@@H]6CO)O[C@@H]5CO)O[C@@H]4CO)O[C@@H]3CO` [a-Cyclodextrin] gave an Ammonium/OD ratio of 1.07.
